The record followed here is EP0540969B1, “Derivatives of structurally modified VIP and pharmaceutical compositions containing them” (YEDA RESEARCH AND DEVELOPMENT CO. LTD., priority 1991, dated 1998).

The subject of one data set is castrated rats. As to the kind of experiment: Biological tests for penile reflexes (latency and number of E2 and cups) after transdermal application. It is filed as in vivo. The settings on record: ointment with Sefsol 318 carrier; for Number of E2: during the test period (Fig. 1C); for Number of Cups: during the test period (Fig. 1D). As to the method:
The following ointment compositions were prepared and tested for transdermal application of lipophilic conjugated modified VIP derivatives in accordance with the present invention. Similar conjugates of unmodified VIP derivatives were tested for comparison. • 1. Ointment containing glycerine as a carrier: The ointment was prepared as follows: 2 g glycerine + 10 mg stearoyl-VIP + 7 drops of DMSO (dimethylsulfoxide). Each rat received 30-50 µg of stearoyl-VIP in about 10 µl ointment. (GLY in Figure 1). • 2. Ointment containing a lubricant as a carrier: The ointment was prepared as above, only glycerine was replaced by lubricant (K-Y Lubricating Jelly, Johnson & Johnson, containing propylene glycol and glycerine), 7 drops of DMSO equals about 130 µl. (LUB in Figure 1). • 3. Ointment containing a lubricant and nitroglycerine as a carrier: Prepared as in (2) above with 1.7 ml nitroglycerine (1 mg/ml), (LUB-NTG in Figure 1). • 4. Ointment containing Sefsol 318™ (12) as a carrier: The ointment composition was: 31.2 µl 10% Sefsol 318™ (glyceryl monocaprylate), 0.24 mg stearoyl-VIP in 31.2 µl DMSO (1-2µl per animal) (SEFS in Figure 1) or 0.24 mg stearoyl -Nle^17-VIP in 31.2µl DMSO (SEFS in Fig. 1).
The biological tests involved measurements of penile reflexes in castrated rats following transdermal application of modified and native VIP conjugates. […] In a further set of experiments the effects of stearoyl-VIP compounded with Sefsol 318™ were compared with those of stearoyl -Nle^17-VIP compounded with Sefsol 318™.
Rats with reduced sexual potential due to castration were employed. Male rats (250-300 g, about three month old) were kept in a 12-hours light, 12-hours dark cycle. Experiments were always conducted within the dark period, 2-6 hours after the onset of darkness. Male rats were castrated and given partial testosterone replacement (4 µg/100 g body weight) in the form of daily injection for 14-21 consecutive days (the duration of the experiment). Experiments were conducted one week following surgery.
A procedure was utilized that employed the technique that measures sexual reflexes in the penis, which enables direct evaluation of penile erection following transdermal administration of the drug. Successful reproduction depends, in large part, upon the precise execution of temporally organized, functionally related behavioural units. In these experiments, we concentrated on the final stages of the erection process (reddening of the penis accompanied by its distension and extension leading to complete erection) and monitored the latency time to the first E2 and first cup (13).
For testing, each animal was restrained in a supine position with the anterior portion of its body enclosed in a loosely fitting cylinder (7 cm diam). After a belt was secured around the torso, the glans penis was extruded from its sheath and gently held perpendicular to the abdomen by a thin wooden applicator positioned at the posterior of the penis. The legs of the male were held by the observer and this position was maintained throughout the test period. The duration of the session was 45 minutes. The latencies and numbers of E2 and cups were recorded and plotted.
An E2 is defined as a complete erection which can be followed by cup in which the penile tip is turned into a cup-like structure, whereby the glands flare out such that the penis is wider in its distal portion than its base. This final stage requires E2 and is probably a pre-requisite for ejaculation (13). Using all the parameters one can obtain a reliable measure of the sexual activity of the tested rat.
Six to ten animals were tested in this paradigm for each variable. Control animals received ointment compositions without St-VIP or St-Nle^17-VIP.

In data set [1] the test system is rat. Put plainly: Acute toxicology studies. The settings on record: for gross side effects / mortality: dose of 7 mg/rat. It is filed as in vivo. As to the method: (§1) To assess the degree of toxicity and possible side effects of stearoyl-Nle^17-VIP, two types of studies were performed: 1. acute toxicology studies; 2. repeated dose toxicity studies.
(§2) The drug was prepared essentially as follows: 539 mg stearoyl-Nle^17-VIP+2.31 ml 10% Sefsol+2.31 ml 40% isopropanol. The experimental animal was the rat (160-300 g body weight).
(§3) In the acute toxicology studies, three routes of administration were chosen: 1. subcutaneous; 2. intravenous; 3. oral.

The nature of data set [2]: Skin penetration and body distribution of 125I-labelled VIP derivatives after transdermal application in Sefsol 318. It counts as in vivo. The source says: These experiments were divided into two groups. In the first group of experiments we performed a time course of the distribution of radioactively labelled stearoyl-Nle^17-VIP (in Sefsol 318™), applied transdermally, in various organs of the body. In the second group of experiments we compared the penetration of four radioactively labelled VIP derivatives with Sefsol 318™ following transdermal application. Two to four animals were used for each data point. The derivatives were labelled with ^125I using the chloramine-T based method (14).
In the first group of experiments, stearoyl-Nle^17-VIP was radioactively labelled with ^125I. Each animal received 2.2 million CPM, in 6µl of the radioactive material+ 26µl ointment (ointment No. 4 in Example 5). Two animals were used for each time point in two independent experiments. To avoid oral absorbance, the animal mouth was sealed. At indicated times following topical application, animals were sacrificed and duplicate tissue samples were removed, weighed and counted in a gamma counter. Tissues measured were: lungs (LU), heart (HE), kidneys (KI), liver (LI) and intestine (IN).
In the second group of experiments compositions of Sefsol 318™ and VIP, St-VIP, Nle^17-VIP and St-Nle^17-VIP were prepared. The experiments were performed as in Figure 2 with the only difference that each animal received a 2.4 million CPM. 2-4 animals were utilized for each variable. Animals were sacrificed 30 minutes after the application of the drug.

Data set [3] deals with rat. As to the kind of experiment: Repeated dose toxicity studies, daily topical application. It counts as in vivo. Conditions: daily topical application (to the sex organ), dose of 3.5 mg/animal. As to the method: as §1, §2, §3
Data set [4] in a line: Stability compared with the unmodified conjugate. It is filed as physicochemical. The settings on record: compared with stearoyl-VIP in which the amino acid sequence was not altered.

As for `CCCCCCCCCCCCCCCCCC(=O)N[C@@H](Cc1c[nH]cn1)C(=O)N[C@@H](CO)C(=O)N[C@@H](CC(=O)O)C(=O)N[C@@H](C)C(=O)N[C@H](C(=O)N[C@@H](Cc1ccccc1)C(=O)N[C@H](C(=O)N[C@@H](CC(=O)O)C(=O)N[C@@H](CC(N)=O)C(=O)N[C@@H](Cc1ccc(O)cc1)C(=O)N[C@H](C(=O)N[C@@H](CCCNC(=N)N)C(=O)N[C@@H](CC(C)C)C(=O)N[C@@H](CCCNC(=N)N)C(=O)N[C@@H](CCCCN)C(=O)N[C@@H](CCC(N)=O)C(=O)N[C@@H](CCSC)C(=O)N[C@@H](C)C(=O)N[C@H](C(=O)N[C@@H](CCCCN)C(=O)N[C@@H](CCCCN)C(=O)N[C@@H](Cc1ccc(O)cc1)C(=O)N[C@@H](CC(C)C)C(=O)N[C@@H](CC(N)=O)C(=O)N[C@@H](CO)C(=O)N[C@H](C(=O)N[C@@H](CC(C)C)C(=O)N[C@@H](CC(N)=O)C(N)=O)[C@@H](C)CC)C(C)C)[C@@H](C)O)[C@@H](C)O)C(C)C` [St-VIP, stearoyl-VIP, reference compound], in the data set with castrated rats, the “Number of E2” value came out at 24 and the “Number of Cups” value came to 12.

Take “stearoyl -norleucine^17-VIP [St-Nle^17-VIP]”: the “Latency to first E2” value with castrated rats (45 min session (Fig. 1A)) is listed as “about 1 minute”. In addition, the “Latency to first cup” value in the data set on castrated rats (45 min session (Fig. 1B)) is 10 min. In the data set with castrated rats, the “Number of E2” value is on record as 34 and the “Number of Cups” value is 20. Also, in the data set on rat [1] (intravenous injection), the LD50 is 7 mg/rat. Besides, in the data set with rat [1] (oral administration), the gross side effects entry is “no gross side effects” and the mortality result was “no mortality”. In addition, in the data set with rat [1] (subcutaneous administration), the gross side effects result is listed as “no gross side effects” and the mortality result is listed as “no mortality”. Also, the “tissue concentrations compared among VIP, St-VIP, Nle^17-VIP and St-Nle^17-VIP” value in data set [2] (in Sefsol 318, animals sacrificed 30 minutes after application (Fig. 3)) is “highest concentrations”. For the same molecule, the “peak deliveries (time after administration)” value in data set [2] (in Sefsol 318, topical, lungs, heart, kidneys, liver, intestine (Fig. 2)) lay in the range of 15 to 60 min. Also, the “disappearance (time after administration)” value in data set [2] (in Sefsol 318, topical, tissue samples (Fig. 2)) came to 2.5 h. Also, in the data set on rat [3], the mortality entry is given as “no mortality” and the side effects result is on record as “nor any side effects”. The “stability relative to stearoyl-VIP” value in data set [4] is reported as “more stable”.
